Laboratory results taken from patent US20240124434A1, “ATF6 INHIBITORS AND USES THEREOF” (Altos Labs, Inc., priority 2018, published 2024).
Structures can show the parent of a compound that is named as a salt. Where two headings read alike, the source gives them in different places.

System: ATF6
Experiment: ERSE ATF6-luciferase reporter assay (thapsigargin-induced ER stress)
Format: cell-based, human
Settings: for inhibition at 1 µM: 1 μM test compound, 8 hr, read-out: Inh. ATF6-Luc @ 1 μM [%]
Procedure: Human bone osteosarcoma (U2-OS) cells were obtained from the American Type Culture Collection (ATCC HTB-96, ATCC Manassas, VA) and were cultured with growing medium containing Dulbecco's Modified Eagle's Medium (DMEM) (Cat. No.:SH30023.02, HyClone) supplemented with fetal bovine serum (FBS) 10% (Cat. No.: 16000044, Gibco) and 1% penicillin-streptomycin antibiotic cocktail (Cat. No.: SV30010, Hyclone).
Cignal Lenti ATF6 luc reporter (Qiagen #CLS-6031L) was used to produce a stable cell line in U2-OS cells. […] The number of response elements as well as the intervening sequence between response elements has been experimentally optimized to maximize the signal to noise ratio.
Compounds were prepared as 10 mM stock solutions and stored at −80° C.
U2-OS ATF6 luc reporter cells were thawed 3-4 days and split once prior to assays. […] At the day of experiment, cells were pre-treated for 30 min with 50 μL growing medium containing either vehicle (dimethyl sulfoxide (DMSO)) (Cat. No.: D2650, Sigma-Aldrich) or 1 μM test compound. After the pre-incubation time, 50 μL of a solution containing 0.2 μM thapsigargin (Tg)(an ER stress inducer) was added to respective wells. This Tg solution also contained vehicle or test compounds at 1 μM. The final concentration of DMSO in each well was kept at 0.3%. Plates were incubated for 8 hr in humidified chambers.
Finally, after 8 hr, plates were cooled to room temperature for 10 min prior to luciferase assays. Luciferase reactions were performed using Luciferase Assay System (Cat. No.: E4550, Promega). Briefly, each well was washed with 100 μl of PBS1X and then 20 μl of lysis reagent were added into each well. Plates were shaken for 10 min, then 50 μl of Luciferase Assay Reagent were added to each well and luminescence was read with an integration time of 1 s and a gain of 110 in a Synergy 4 Microplate reader.
For the assessment of the half-maximal inhibitory concentration (IC50) for selected compounds, dose-response assays were performed. Compounds were serially diluted using DMSO starting at 30 μM until 1 nM. The assays were run as described above.

[1] = Homo sapiens, U2OS, 8 h, thapsigargin-induced ER stress, U2-OS ATF6 luc reporter cells
[2] = Homo sapiens, U2OS, dose-response 30 μM to 1 nM, thapsigargin-induced ER stress, U2-OS ATF6 luc reporter cells, read-out: IC50 ATF6-Luc reporter

In the case of `CC(c1ccc(C(F)(F)F)cc1C(F)(F)F)n1cc(NC(=O)c2cc(-c3ccccn3)on2)cn1` (single isomer, unassigned) [“Enantiomer B” of Example S5, N-(1-(1-(2,4-bis(trifluoromethyl)phenyl)ethyl)-1H-pyrazol-4-yl)-5-(pyridin-2-yl)isoxazole-3-carboxamide], the IC50 is reported as over 10 µM and the “Inh. ATF6-Luc @ 1 μM [%]” value (8 h) is reported as “+ (+ refers to <25% inhibition at 1 μM)”.
With `CC(c1ccc(C(F)(F)F)cc1C(F)(F)F)n1cc(NC(=O)c2cc(-c3ccco3)on2)cn1` (single isomer, unassigned) [“Enantiomer B” of Example S6, N-(1-(1-(2,4-bis(trifluoromethyl)phenyl)ethyl)-1H-pyrazol-4-yl)-5-(furan-2-yl)isoxazole-3-carboxamide] the IC50 was over 10 µM and the “Inh. ATF6-Luc @ 1 μM [%]” value (8 h) was “+ (+ refers to <25% inhibition at 1 μM)”.
Compound `CC(C)(O)c1cc(C(=O)Nc2cnn(Cc3ccc(C(F)(F)F)cc3C(F)(F)F)c2)no1` [Compound 2, N-(1-(2,4-bis(trifluoromethyl)benzyl)-1H-pyrazol-4-yl)-5-(2-hydroxypropan-2-yl)isoxazole-3-carboxamide] has an inhibition at 1 µM [1] of under 25% and an IC50 [2] of over 10 µM.
For `CC(=O)c1cc(C(=O)Nc2cnn(Cc3ccc(C(F)(F)F)cc3C(F)(F)F)c2)no1` [Compound 3, 5-acetyl-N-(1-(2,4-bis(trifluoromethyl)benzyl)-1H-pyrazol-4-yl)isoxazole-3-carboxamide], the inhibition at 1 µM [1] was under 25% and the IC50 [2] was over 10 µM.
For `O=C(Nc1cnn(Cc2ccc(C(F)(F)F)cc2C(F)(F)F)c1)c1nc(-c2cccc(F)c2)no1` [Compound 4, N-(1-(2,4-bis(trifluoromethyl)benzyl)-1H-pyrazol-4-yl)-3-(3-fluorophenyl)-1,2,4-oxadiazole-5-carboxamide formate], the IC50 [2] was over 10 µM and the inhibition at 1 µM (Homo sapiens, U2OS, thapsigargin-induced ER stress, U2-OS ATF6 luc reporter cells) was under 25%.
Work on `O=C(Nc1cnn(Cc2ccc(C(F)(F)F)cc2C(F)(F)F)c1)c1cc(-c2ccncc2)on1` [Compound 10, N-(1-(2,4-bis(trifluoromethyl)benzyl)-1H-pyrazol-4-yl)-5-(pyridin-4-yl)isoxazole-3-carboxamide] yielded an inhibition at 1 µM [1] of under 25% and an IC50 [2] of 1 to 10 µM.
In the case of `CC(C)(C)c1cc(C(=O)Nc2cnn(Cc3ccc(C(F)(F)F)cc3C(F)(F)F)c2)no1` [Compound 13, N-{1-[2,4-bis(trifluoromethyl)benzyl]-1H-pyrazol-4-yl}-5-tert-butyl-1,2-oxazole-3-carboxamide], the inhibition at 1 µM [1] is reported as under 25% and the IC50 [2] is reported as over 10 µM.
Work on `O=C(Nc1cnn(Cc2ccc(C(F)(F)F)cc2C(F)(F)F)c1)c1cncc(-c2cccnc2)c1` [Compound 15, N-(1-(2,4-bis(trifluoromethyl)benzyl)-1H-pyrazol-4-yl)-[3,3′-bipyridine]-5-carboxamide] yielded an inhibition at 1 µM [1] of under 25% and an IC50 [2] of over 10 µM.
With `O=C(Nc1cnn(Cc2ccc(C(F)(F)F)cc2C(F)(F)F)c1)c1cc(-c2ccc(F)cc2F)on1` [Compound 16, N-(1-(2,4-bis(trifluoromethyl)benzyl)-1H-pyrazol-4-yl)-5-(2,4-difluorophenyl)isoxazole-3-carboxamide] the inhibition at 1 µM [1] was under 25% and the IC50 [2] was over 10 µM.
For `O=C(Nc1cn(Cc2ccc(C(F)(F)F)cc2C(F)(F)F)cn1)c1cc(-c2ccco2)on1` [Compound 17, N-(1-(2,4-bis(trifluoromethyl)benzyl)-1H-imidazol-4-yl)-5-(furan-2-yl)isoxazole-3-carboxamide], the inhibition at 1 µM [1] was under 25% and the IC50 [2] was over 10 µM.
In the case of `O=C(Nc1cnn(C2Cc3ccccc3C2)c1)c1cc(-c2ccco2)on1` [Compound 18, N-(1-(2,3-dihydro-1H-inden-2-yl)-1H-pyrazol-4-yl)-5-(furan-2-yl) isoxazole-3-carboxamide], the inhibition at 1 µM [1] is reported as under 25% and the IC50 [2] is reported as over 10 µM.
For `O=C(Nc1cnn(Cc2ccc(C(F)(F)F)cc2C(F)(F)F)c1)c1cncc(-c2ccc(F)cc2)c1` [Compound 20, N-(1-(2,4-bis(trifluoromethyl)benzyl)-1H-pyrazol-4-yl)-5-(4 fluorophenyl)nicotinamide], the inhibition at 1 µM [1] was under 25% and the IC50 [2] was over 10 µM.
`O=C(Nc1cnn(Cc2ccc(C(F)(F)F)cc2C(F)(F)F)c1)c1cncc(-c2ccccc2)c1` [Compound 21, N-(1-(2,4-bis(trifluoromethyl)benzyl)-1H-pyrazol-4-yl)-5-phenylnicotinamide] was tested, and the inhibition at 1 µM [1] was under 25% and the IC50 [2] was over 10 µM.
For `O=C(Nc1cnn(Cc2ccc(C(F)(F)F)cc2C(F)(F)F)c1)c1ccon1` [Compound 23, N-(1-(2,4-bis(trifluoromethyl)benzyl)-1H-pyrazol-4-yl)isoxazole-3-carboxamide], the inhibition at 1 µM [1] was under 25% and the IC50 [2] was over 10 µM.
In the case of `O=C(Nc1cnn(Cc2c(Cl)cccc2Cl)c1)c1cc(-c2ccco2)on1` [Compound 24, N-(1-(2,6-dichlorobenzyl)-1H-pyrazol-4-yl)-5-(furan-2-yl) isoxazole-3-carboxamide], the inhibition at 1 µM [1] is reported as under 25% and the IC50 [2] is reported as over 10 µM.
In the case of `N#Cc1ccc(Cn2cc(NC(=O)c3cc(-c4ccco4)on3)cn2)cc1` [Compound 25, N-(1-(4-cyanobenzyl)-1H-pyrazol-4-yl)-5-(furan-2-yl)isoxazole-3-carboxamide], the inhibition at 1 µM [1] is reported as under 25% and the IC50 [2] is reported as over 10 µM.
With `N#Cc1ccc(Cn2cc(NC(=O)c3cc(-c4ccco4)on3)cn2)cc1C(F)(F)F` [Compound 26, N-(1-(4-cyano-3-(trifluoromethyl)benzyl)-1H-pyrazol-4-yl)-5-(furan-2-yl)isoxazole-3-carboxamide] the inhibition at 1 µM [1] was under 25% and the IC50 [2] was over 10 µM.
With `O=C(Nc1cnn(-c2ccc(C(F)(F)F)cc2C(F)(F)F)c1)c1cc(-c2ccco2)on1` [Compound 27, N-(1-(2,4-bis(trifluoromethyl)phenyl)-1H-pyrazol-4-yl)-5-(furan-2-yl)isoxazole-3-carboxamide] the inhibition at 1 µM [1] was under 25% and the IC50 [2] was over 10 µM.
`O=C(Nc1cnn(Cc2cc(C(F)(F)F)cc(C(F)(F)F)c2)c1)c1cc(-c2ccco2)on1` [Compound 28, N-(1-(3,5-bis(trifluoromethyl)benzyl)-1H-pyrazole-4-yl)-5-(furan-2-yl)isoxazole-3-carboxamide] showed an inhibition at 1 µM [1] of under 25% and an IC50 [2] of over 10 µM.
In the case of `Cc1nn(Cc2ccc(C(F)(F)F)cc2C(F)(F)F)cc1NC(=O)c1cc(-c2ccccn2)on1` [Compound 29, N-(1-(2,4-bis(trifluoromethyl)benzyl)-3-methyl-1H-pyrazol-4-yl)-5-(pyridin-2-yl)isoxazole-3-carboxamide], the inhibition at 1 µM [1] is reported as under 25% and the IC50 [2] is reported as over 10 µM.
Compound `Cc1c(NC(=O)c2cc(-c3ccccn3)on2)cnn1Cc1ccc(C(F)(F)F)cc1C(F)(F)F` [Compound 30, N-(1-(2,4-bis(trifluoromethyl)benzyl)-5-methyl-1H-pyrazol-4-yl)-5-(pyridin-2-yl)isoxazole-3-carboxamide] has an inhibition at 1 µM [1] of 25 to 50% and an IC50 [2] of 1 to 10 µM.
Work on `O=C(Nc1cnn(Cc2ccc(C(F)(F)F)cc2C(F)(F)F)c1)c1cc(-c2ncccc2Cl)on1` [Compound 31, N-(1-(2,4-bis(trifluoromethyl)benzyl)-1H-pyrazol-4-yl)-5-(3-chloropyridin-2-yl)isoxazole-3-carboxamide] yielded an inhibition at 1 µM [1] of under 25% and an IC50 [2] of over 10 µM.
With `CC(c1ccc(C(F)(F)F)cc1C(F)(F)F)n1cc(NC(=O)c2cc(-c3ncccc3Cl)on2)cn1` (stereo not shown) [Compound 32, N-(1-(1-(2,4-bis(trifluoromethyl)phenyl)ethyl)-1H-pyrazol-4-yl)-5-(3-chloropyridin-2-yl)isoxazole-3-carboxamide] the inhibition at 1 µM [1] was under 25% and the IC50 [2] was over 10 µM.
`O=C(Nc1cnn(C(c2ccc(C(F)(F)F)cc2C(F)(F)F)C2CC2)c1)c1cc(-c2ccccn2)on1` (stereo not shown) [Compound 33, N-(1-((2,4-bis(trifluoromethyl)phenyl)(cyclopropyl)methyl)-1H-pyrazol-4-yl)-5-(pyridin-2-yl)isoxazole-3-carboxamide] showed an inhibition at 1 µM [1] of under 25% and an IC50 [2] of over 10 µM.
Compound `C[C@H](c1ccc(C(F)(F)F)cc1C(F)(F)F)n1cc(NC(=O)c2cc(-c3ncccc3Cl)on2)cn1` [Compound 34, (R)-N-(1-(1-(2,4-bis(trifluoromethyl)phenyl)ethyl)-1H-pyrazol-4-yl)-5-(3-chloropyridin-2-yl)isoxazole-3-carboxamide] has an inhibition at 1 µM [1] of under 25% and an IC50 [2] of over 10 µM.
In the case of `C[C@@H](c1ccc(C(F)(F)F)cc1C(F)(F)F)n1cc(NC(=O)c2cc(-c3ncccc3Cl)on2)cn1` [Compound 35, (S)-N-(1-(1-(2,4-bis(trifluoromethyl)phenyl)ethyl)-1H-pyrazol-4-yl)-5-(3-chloropyridin-2-yl)isoxazole-3-carboxamide], the inhibition at 1 µM [1] is reported as under 25% and the IC50 [2] is reported as over 10 µM.
